Experimental data published in the NIST ThermoML archive (doi:10.1016/j.jct.2017.10.002).
Where “and” joins values, the source holds several entries; their conditions need not be identical. Equal values may be shown once.

Assay: molar heat capacity at constant pressure
Settings: 101.33 kPa, relaxation calorimetry

CCc1ncc[n-]1.CCc1ncc[n-]1.[Zn+2] [zinc(II) 2-ethylimidazolide]
molar heat capacity at constant pressure
Settings	Crystal	Glass
1 K	–	0.01063 J/K/mol
1.832 K	0.0493 J/K/mol	–
1.836 K	0.01638 J/K/mol	–
1.837 K	0.04503 J/K/mol	–
1.839 K	–	0.03581 J/K/mol
1.88 K	0.05213 J/K/mol	–
1.914 K	0.04977 J/K/mol	–
1.915 K	–	0.04142 J/K/mol
1.916 K	0.0188 J/K/mol	–
1.932 K	0.05559 J/K/mol	–
1.989 K	0.0603 J/K/mol	–
2 K	0.0589 J/K/mol [middle of 4 runs]	0.04827 J/K/mol
2.001 K	–	0.04687 J/K/mol
2.005 K	0.02171 J/K/mol	–
2.051 K	0.06589 J/K/mol	–
2.09 K	0.06722 J/K/mol	–
2.091 K	–	0.05348 J/K/mol
2.099 K	0.02469 J/K/mol	–
2.118 K	0.07352 J/K/mol	–
2.183 K	0.07697 J/K/mol	–
2.184 K	–	0.06212 J/K/mol
2.19 K	0.08177 J/K/mol	–
2.197 K	0.02817 J/K/mol	–
2.265 K	0.0916 J/K/mol	–
2.283 K	0.08765 J/K/mol	–
2.285 K	–	0.07138 J/K/mol
2.301 K	0.03272 J/K/mol	–
2.346 K	0.1035 J/K/mol	–
2.41 K	0.03888 J/K/mol	–
2.411 K	0.1031 J/K/mol	–
2.417 K	–	0.08449 J/K/mol
2.488 K	0.1258 J/K/mol	–
2.509 K	–	0.09566 J/K/mol
2.512 K	0.1183 J/K/mol	–
2.516 K	0.04352 J/K/mol	–
2.61 K	0.1475 J/K/mol	–
2.615 K	0.135 J/K/mol	–
2.639 K	0.0517 J/K/mol	–
2.646 K	–	0.1124 J/K/mol
2.733 K	0.1558 J/K/mol	–
2.738 K	–	0.1254 J/K/mol
2.739 K	0.1709 J/K/mol	–
2.744 K	0.0566 J/K/mol	–
2.854 K	0.06599 J/K/mol	–
2.858 K	0.194 J/K/mol	–
2.86 K	0.1727 J/K/mol	–
2.868 K	–	0.1481 J/K/mol
2.979 K	0.1934 J/K/mol	–
2.986 K	0.2216 J/K/mol	0.1712 J/K/mol
2.992 K	0.07481 J/K/mol	–
3 K	0.2257 J/K/mol and 0.076 J/K/mol and 0.2038 J/K/mol	0.168 J/K/mol
3.106 K	0.08446 J/K/mol	–
3.109 K	0.2254 J/K/mol	–
3.118 K	0.2529 J/K/mol	–
3.122 K	–	0.1906 J/K/mol
3.246 K	0.09833 J/K/mol	–
3.248 K	0.2525 J/K/mol	–
3.259 K	0.2898 J/K/mol	–
3.264 K	–	0.2232 J/K/mol
3.388 K	0.2988 J/K/mol	–
3.395 K	0.1127 J/K/mol	–
3.397 K	–	0.2534 J/K/mol
3.407 K	0.3327 J/K/mol	–
3.536 K	0.3331 J/K/mol	–
3.537 K	0.1275 J/K/mol	–
3.551 K	–	0.2838 J/K/mol
3.562 K	0.381 J/K/mol	–
3.691 K	0.3887 J/K/mol	–
3.692 K	0.1432 J/K/mol	–
3.699 K	–	0.3307 J/K/mol
3.737 K	0.4416 J/K/mol	–
3.853 K	0.4343 J/K/mol and 0.1693 J/K/mol	–
3.861 K	–	0.3658 J/K/mol
3.916 K	0.5079 J/K/mol	–
4 K	0.5386 J/K/mol and 0.1872 J/K/mol and 0.4762 J/K/mol	0.4158 J/K/mol
4.023 K	0.1911 J/K/mol	–
4.024 K	0.4906 J/K/mol	–
4.033 K	–	0.4343 J/K/mol
4.093 K	0.5776 J/K/mol	–
4.203 K	0.2234 J/K/mol	–
4.204 K	0.5288 J/K/mol	–
4.213 K	–	0.4859 J/K/mol
4.288 K	0.6588 J/K/mol	–
4.385 K	0.6193 J/K/mol	–
4.39 K	0.2481 J/K/mol	–
4.397 K	–	0.5485 J/K/mol
4.475 K	0.7416 J/K/mol	–
4.577 K	0.2815 J/K/mol	–
4.58 K	0.6992 J/K/mol	–
4.588 K	–	0.6228 J/K/mol
4.673 K	0.833 J/K/mol	–
4.782 K	0.3148 J/K/mol	–
4.784 K	0.7873 J/K/mol	–
4.797 K	–	0.7076 J/K/mol
4.885 K	0.9362 J/K/mol	–
4.995 K	0.8682 J/K/mol and 0.3599 J/K/mol	–
5 K	0.9962 J/K/mol and 0.3674 J/K/mol and 0.8773 J/K/mol	0.8029 J/K/mol
5.008 K	–	0.8138 J/K/mol
5.104 K	1.051 J/K/mol	–
5.217 K	0.968 J/K/mol and 0.4058 J/K/mol	–
5.228 K	–	0.8928 J/K/mol
5.341 K	1.18 J/K/mol	–
5.447 K	1.121 J/K/mol	–
5.449 K	0.4865 J/K/mol	–
5.457 K	–	1.022 J/K/mol
5.583 K	1.326 J/K/mol	–
5.686 K	0.5523 J/K/mol	–
5.687 K	1.228 J/K/mol	–
5.699 K	–	1.17 J/K/mol
5.837 K	1.479 J/K/mol	–
5.933 K	1.341 J/K/mol	–
5.936 K	0.614 J/K/mol	–
5.952 K	–	1.278 J/K/mol
6 K	1.585 J/K/mol and 0.6261 J/K/mol and 1.401 J/K/mol	1.321 J/K/mol
6.1 K	1.651 J/K/mol	–
6.189 K	1.538 J/K/mol	–
6.195 K	0.6531 J/K/mol	–
6.204 K	–	1.457 J/K/mol
6.407 K	1.86 J/K/mol	–
6.464 K	0.7855 J/K/mol	–
6.465 K	1.656 J/K/mol	–
6.479 K	–	1.613 J/K/mol
6.685 K	2.057 J/K/mol	–
6.752 K	1.863 J/K/mol and 0.8975 J/K/mol	–
6.765 K	–	1.809 J/K/mol
6.98 K	2.277 J/K/mol	–
7 K	2.294 J/K/mol and 0.9817 J/K/mol and 2.037 J/K/mol	1.956 J/K/mol
7.049 K	2.08 J/K/mol and 1.007 J/K/mol	–
7.062 K	–	1.981 J/K/mol
7.296 K	2.524 J/K/mol	–
7.357 K	2.322 J/K/mol and 1.115 J/K/mol	–
7.372 K	–	2.248 J/K/mol
7.627 K	2.797 J/K/mol	–
7.681 K	1.273 J/K/mol	–
7.686 K	2.488 J/K/mol	–
7.698 K	–	2.428 J/K/mol
7.976 K	3.092 J/K/mol	–
8 K	3.113 J/K/mol and 1.446 J/K/mol and 2.772 J/K/mol	2.689 J/K/mol
8.016 K	1.458 J/K/mol	–
8.018 K	2.783 J/K/mol	–
8.034 K	–	2.703 J/K/mol
8.339 K	3.414 J/K/mol	–
8.366 K	1.661 J/K/mol	–
8.367 K	3.093 J/K/mol	–
8.389 K	–	3.029 J/K/mol
8.718 K	3.76 J/K/mol	–
8.733 K	3.359 J/K/mol	–
8.737 K	1.859 J/K/mol	–
8.753 K	–	3.269 J/K/mol
9 K	4.029 J/K/mol and 2.004 J/K/mol and 3.588 J/K/mol	3.511 J/K/mol
9.115 K	4.141 J/K/mol	–
9.117 K	2.11 J/K/mol	–
9.118 K	3.738 J/K/mol	–
9.136 K	–	3.605 J/K/mol
9.514 K	3.952 J/K/mol	–
9.518 K	2.336 J/K/mol	–
9.529 K	4.549 J/K/mol	–
9.536 K	–	4.033 J/K/mol
9.931 K	4.428 J/K/mol	–
9.935 K	2.594 J/K/mol	–
9.953 K	–	4.356 J/K/mol
10 K	5.029 J/K/mol and 2.651 J/K/mol and 4.482 J/K/mol	4.413 J/K/mol
10.12 K	5.166 J/K/mol	–
10.35 K	4.823 J/K/mol and 2.874 J/K/mol	4.741 J/K/mol
10.59 K	5.656 J/K/mol	–
10.77 K	5.231 J/K/mol and 3.187 J/K/mol	–
10.78 K	–	5.172 J/K/mol
11.06 K	6.17 J/K/mol	–
11.24 K	5.701 J/K/mol and 3.55 J/K/mol	–
11.25 K	–	5.657 J/K/mol
11.54 K	6.677 J/K/mol	–
11.74 K	6.214 J/K/mol and 3.967 J/K/mol	–
11.75 K	–	6.171 J/K/mol
12.06 K	7.299 J/K/mol	–
12.26 K	6.744 J/K/mol and 4.399 J/K/mol	–
12.27 K	–	6.731 J/K/mol
12.59 K	7.93 J/K/mol	–
12.81 K	7.34 J/K/mol and 4.896 J/K/mol	7.322 J/K/mol
13.15 K	8.616 J/K/mol	–
13.37 K	7.965 J/K/mol and 5.426 J/K/mol	–
13.38 K	–	7.966 J/K/mol
13.74 K	9.343 J/K/mol	–
13.96 K	8.65 J/K/mol and 6.006 J/K/mol	–
13.97 K	–	8.66 J/K/mol
14.35 K	10.14 J/K/mol	–
14.57 K	9.355 J/K/mol and 6.627 J/K/mol	–
14.59 K	–	9.395 J/K/mol
14.99 K	10.97 J/K/mol	–
15 K	10.96 J/K/mol and 7.064 J/K/mol and 9.871 J/K/mol	9.887 J/K/mol
15.22 K	10.14 J/K/mol and 7.319 J/K/mol	–
15.23 K	–	10.18 J/K/mol
15.49 K	11.63 J/K/mol	–
15.72 K	7.865 J/K/mol	–
15.73 K	10.74 J/K/mol	–
15.74 K	–	10.79 J/K/mol
16.94 K	13.59 J/K/mol	–
17.17 K	12.58 J/K/mol	–
17.18 K	9.551 J/K/mol	12.66 J/K/mol
18.52 K	15.74 J/K/mol	–
18.77 K	11.5 J/K/mol	–
18.78 K	14.67 J/K/mol	–
18.79 K	–	14.78 J/K/mol
20 K	17.74 J/K/mol and 13.06 J/K/mol and 16.28 J/K/mol	16.43 J/K/mol
